Source: patent publication US7811816B2, “Isolated CD8 +T lymphocytes specifically cytotoxic for a disease causing target cell” (Ortho-McNeil Pharmaeutical, Inc., priority 2001, dated 2010)
Marks after values point to notes of the source that are not given here.

What was measured:
L^d class I molecules = molecular target: T1, L^d class I molecules (Mus musculus, UniProt P01897); assay: MHC class I stabilization assay on L^d transfected RMAS cells, flow cytometry; assay type: binding; conditions: for Stabilization of MHC: L^d, ratio of fluorescence intensity (with peptide - without peptide)/without peptide; for Binding to L^d, in words: MHC class I stabilization assay, RMAS-L^d cells
T1 construct: expressed in transfected cells; host or cells: RMA-S (RMAS-L^d), TAP-deficient
T1 sequence (P01897 25-362): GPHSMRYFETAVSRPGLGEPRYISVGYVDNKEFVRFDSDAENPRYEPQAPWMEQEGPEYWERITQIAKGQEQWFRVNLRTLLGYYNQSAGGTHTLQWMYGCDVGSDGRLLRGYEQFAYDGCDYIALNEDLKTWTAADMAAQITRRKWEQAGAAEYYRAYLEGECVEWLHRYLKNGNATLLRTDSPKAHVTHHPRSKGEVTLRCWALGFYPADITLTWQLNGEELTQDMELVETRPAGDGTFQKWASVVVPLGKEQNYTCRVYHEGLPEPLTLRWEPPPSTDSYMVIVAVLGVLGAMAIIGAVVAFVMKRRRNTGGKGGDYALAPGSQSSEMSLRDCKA
T1 sequence (P01887 21-119 partner): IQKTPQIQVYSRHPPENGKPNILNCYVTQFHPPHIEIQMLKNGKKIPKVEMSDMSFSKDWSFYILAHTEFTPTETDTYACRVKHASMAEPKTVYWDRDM
Protocol: (§1) TAP 2 deficient RMA.S cells (FIG. 11B) or L^d transfected RMA.S cells (FIG. 11A) were incubated with indicated concentration of peptides at 28° C. overnight and then incubated at 37° C. for two to four hours. The cells were harvested and stained with mAb specific for L^d (FIG. 11B) or for D^b (FIG. 11A) and analyzed with FACScan.
(§2) The binding capacity of these synthetic peptides to L^d and D^b class I molecules were tested in an MHC class I stabilization assay (Cai et al. (1996) supra). Antigen-transporting deficient (TAP^−) RMAS cells (H-2^b) or L^d transfected RMAS (RMAS-L^d) cells were cultured in the presence of a titrated concentration of peptides at 27° C. After overnight culturing at 27° C., these cells were further cultured for two hours at 37° C. and the surface expression of L^d or D^b on the cells were analyzed by flow cytometry. […] Of the five peptides predicted bind to D^b, only IgE44 binds Db strongly and two peptides, IgE16 and IgE125, bind D^b weakly. […] Thus, a total of six peptides were identified that bind to either L^d or D^b MHC class I molecules.

D^b class I molecules = molecular target: T2, D^b class I molecules (Mus musculus, UniProt P01899); assay: MHC class I stabilization assay on TAP- RMAS cells (H-2^b), flow cytometry; assay type: binding; conditions: for Binding to / stabilization of D^b, in words: MHC class I stabilization assay, RMAS cells; for Stabilization of MHC: D^b, ratio of fluorescence intensity (with peptide - without peptide)/without peptide
T2 construct: Antigen-transporting deficient (TAP^−) RMAS cells (H-2^b); endogenous in cells; host or cells: RMA-S (TAP 2 deficient, H-2^b)
T2 sequence (P01899 25-362): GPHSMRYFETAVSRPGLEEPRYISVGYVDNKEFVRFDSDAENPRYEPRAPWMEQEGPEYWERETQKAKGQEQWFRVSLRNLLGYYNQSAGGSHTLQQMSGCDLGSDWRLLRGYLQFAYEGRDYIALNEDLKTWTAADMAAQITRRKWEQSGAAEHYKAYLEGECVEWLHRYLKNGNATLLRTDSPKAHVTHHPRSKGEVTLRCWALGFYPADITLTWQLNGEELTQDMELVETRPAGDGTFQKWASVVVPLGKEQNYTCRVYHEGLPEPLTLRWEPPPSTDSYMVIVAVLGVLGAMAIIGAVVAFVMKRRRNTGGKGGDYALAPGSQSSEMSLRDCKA
T2 sequence (P01887 21-119 partner): T1 sequence (P01887 21-119 partner)
Protocol: as §1, §2

[1] = system: peptides loaded RMAS (K^b, D^b) cells; assay: In vitro generation of IgE peptide specific CTLs, 51Cr release against peptide loaded RMAS cells; assay type: cell-based; conditions: naive mouse CD8 T cells, Drosophila APC with D^b, B7-1, ICAM-1; Day 9
Protocol: CD8^+ T cells were purified from lymph nodes of CBF1/J mice (FIGS. 2A, 2B and 2D) or from B6, interferon γ knock out mice (IFNγ^−/−) or perform (PF^−/−) knock out mice (FIG. 2C). The purified CD8 T cells were cultured with indicated IgE peptides presented by SC2 cells transfected with D^b MHC class I, B7-1 (CD80) and ICAM-1 (CD54) molecules. Low dose of recombinant IL-2 (20 units/ml) was added to the culture at Day 3 and every other day thereafter. On Day 9, CTL activity was measured against ^51Cr labeled RMAS cells loaded with or without indicated IgE peptides. In FIG. 2D, anti-D^b mAb (20 μg/ml) was added at the beginning of CTL assay.
(§3) CTL Assay: Epitope-bearing (target) cells are used as target cells in a ^51 Cr release assay. 5×10^6 target cells in RPMI medium containing 4% fetal calf serum, 1% HEPES buffer and 0.25% gentamycin are labeled at 37° C. for one hour with 0.1 mCi ^51Cr. Cells are washed four times and diluted to 10^5 cells/ml in RPMI with 10% fetal bovine serum (HyClone). In a 96-well microtiter plate, 100 μl effector CTLs and 100 μl peptide-loaded, ^51Cr-labeled target cells are combined at ratios of 100:1, 20:1 and 4:1 (effector: target). K562 cells are added at a ratio of 20:1 (K562) to reduce natural killer cell background lysis. Non-specific lysis is assessed using cells labeled with ^51Cr as described above, but not bearing the epitope cell line. Controls to measure spontaneous release and maximum release of ^51Cr are included in duplicate. After incubation at 37° C. for six hours, the plates are centrifuged and the supernatants counted to measure ^51Cr release. Percent specific lysis is calculated using the following equation: […]
The ability of these IgE peptides in eliciting CTL responses was evaluated in vitro. As previously described, Drosophila cells transfected with MHC class I plus B7-1 and ICAM-1 are potent antigen presenting cells (APC) in activation of resting naïve CD8 T cells in vitro. Resting naïve CD8 T cells were purified from mouse lymph nodes and cultured with peptide loaded Drosophila cells transfected with L^d or D^b plus B7-1 and ICAM-1 in the absence of cytokines. IL-2 (20units/ml) was added at Day 3 and every other day thereafter. The CTL activity towards peptides loaded RMAS (K^b, D^b) cells or RMAS-L^d cells were measured on Day 9.

[2] = system: peptides loaded RMAS-L^d cells; assay: In vitro generation of IgE peptide specific CTLs, 51Cr release against peptide loaded RMAS-L^d cells; assay type: cell-based; conditions: naive mouse CD8 T cells, Drosophila APC with L^d, B7-1, ICAM-1; Day 9
Protocol: as §3
The ability of these IgE peptides in eliciting CTL responses was evaluated in vitro. […] The CTL activity towards peptides loaded RMAS (K^b, D^b) cells or RMAS-L^d cells were measured on Day 9.

[3] = system: T2 cells loaded with indicated peptides; assay: CTL activity generated from PBMC of different donors with IgE peptides on transfected Drosophila cells, chromium release; assay type: cell-based, human; conditions: x: number of donor from whom anti-IgE CTL was generated; N: number of donor tested
Protocol: CD8 T cells were purified from individual donors and cultured with Drosophila cells transfected with HLA-A2, hB7-1, hB7-2, hICAM-1 and hLFA-3 molecules in the presence of indicated peptides. After being cultured for six days, low doses of hIL-2 was added to the culture and re-stimulated with peptides loaded autologous adherent cells for an additional seven days. The CTLs were then harvested and the specific killing activities were tested with ^51Cr labeled T2 cells that loaded with indicated peptides FIGS. 9A through 9D by a standard chromium release assay. [table]

GSNQGFFIF (Peptide antigen) [IgE 366]
Stabilization of MHC (L^d class I molecules): ++^c (more than two fold is calculate as “++”)
Binding to L^d, in words (L^d class I molecules): strongly
Binding to / stabilization of D^b, in words (D^b class I molecules): ^cIgE 366 also stabilizes D^b class I molecules.
Binding to / stabilization of D^b, in words (D^b class I molecules; listed as IgE366): binds both L^d and D^b
Specific CTL activity induced by the peptide, D^b restricted [1]: induce D^b restricted CTLs
Specific CTL activity induced by the peptide, L^d restricted [2]: inducing L^d restricted CTLs

KPCKGTASM (Peptide antigen) [IgE 11]
Stabilization of MHC (L^d class I molecules): ++ (more than two fold is calculate as “++”)
Binding to L^d, in words (L^d class I molecules): strongly
Specific CTL activity induced by the peptide, L^d restricted [2]: induces antigen specific CTLs

SLLTVSGAWA (Peptide antigen) [IgE 876]
Specific Killing (x/N) [3]: 0/5

SLNGTTMTL [IgE 47]
Specific Killing (x/N) [3]: 7/8

TLACLIQNFM (Peptide antigen) [IgE 895]
Specific Killing (x/N) [3]: 3/4

TLTVTSTLPV (Peptide antigen) [IgE 884]
Specific Killing (x/N) [3]: 8/8

GHILNDVSV (Peptide antigen) [IgE 125]
Stabilization of MHC (D^b class I molecules): + (less than two-fold is scored as “+”)
Binding to / stabilization of D^b, in words (D^b class I molecules): weakly
Specific CTL activity induced by the peptide, D^b restricted [1]: No specific CTL activity

TASMTLGCL (Peptide antigen) [IgE 16]
Stabilization of MHC (D^b class I molecules): + (less than two-fold is scored as “+”)
Binding to / stabilization of D^b, in words (D^b class I molecules): weakly
Specific CTL activity induced by the peptide, D^b restricted [1]: No specific CTL activity

WLSDRTYTC (Peptide antigen) [IgE 185]
Specific Killing (x/N) [3]: 0/8

HSTIQLYCF (Peptide antigen) [IgE 114]
Stabilization of MHC (L^d class I molecules): + (less than two-fold is scored as “+”)
Binding to L^d, in words (L^d class I molecules): weakly

MSTVNFPAL (Peptide antigen) [IgE 44]
Stabilization of MHC (D^b class I molecules): ++ (more than two fold is calculate as “++”)
Binding to / stabilization of D^b, in words (D^b class I molecules): strongly
Specific CTL activity induced by the peptide, D^b restricted [1]: specifically lysed

WLEDGQVMDV (Peptide antigen) [IgE 883]
Specific Killing (x/N) [3]: 1/5

QMFTCRVAHT (Peptide antigen) [IgE 887]
Specific Killing (x/N) [3]: 1/4

QVMDVDLSTA (Peptide antigen) [IgE 898]
Specific Killing (x/N) [3]: 3/4

WVDNKTFSV [IgE 96]
Specific Killing (x/N) [3]: 3/8

YATISLLTV (Peptide antigen) [IgE 890]
Specific Killing (x/N) [3]: 4/5
